According to patent US11214594B2, “Antimicrobial peptide having synergistic antibacterial effect with antibiotics on multidrug resistant bacteria, and use thereof” (priority 2016, dated 2022):
In brackets after ≈: the same amount, converted by molar mass. Read-outs that look alike come from different tables or passages of the source. Where a SMILES comes first, the peptide text is derived from it.

Legend:
MDRPA 2002 = type: cell-based, Pseudomonas aeruginosa
Protocol: (§1) For the antibacterial activity, a minimal inhibitory concentration (MIC) of a peptide in which fungus bodies were not split in an MH medium with sufficient nutrients was measured.
(§2) Specifically, the strains described in the following [Table 2] were purchased and diluted with an MH medium such that the number of bacteria was 2×10^6 colony-forming units (CFUs), 100 μl of each of the diluted strains was aliquoted into a 96-well microtiter plate, and then 100 μl of a peptide solution diluted with the MH medium (solution diluted stepwise at 2: 1) was added to each well.

MDRPA 2003 = type: cell-based, Pseudomonas aeruginosa
Protocol: as §1, §2

MRSA 3126 = type: cell-based, Staphylococcus aureus
Protocol: as §1, §2

MRSA 3114 = type: cell-based, Staphylococcus aureus
Protocol: as §1, §2

S. epidermidis = test: microbe, parasite or virus in culture; type: cell-based, Staphylococcus epidermidis
Protocol: as §1, §2

MDRAB 12035 = test: microbe, parasite or virus in culture; type: cell-based, Acinetobacter baumannii
Protocol: as §1, §2

A. baumannii [1] = test: microbe, parasite or virus in culture; type: cell-based, Acinetobacter baumannii
Protocol: as §1, §2

MDRAB 12036 = type: cell-based, Acinetobacter baumannii
Protocol: as §1, §2

MDRST 8009 = type: cell-based, Salmonella typhimurium; details: agent alone
Protocol: as §1, §2

MDRST 8007 = test: Minimal inhibitory concentration (MIC), single agent; type: cell-based, Salmonella typhimurium; details: agent alone
Protocol: as §1, §2

MDREC 1238 = type: cell-based, Escherichia coli
Protocol: as §1, §2

MDREC 1229 = test: microbe, parasite or virus in culture; type: cell-based, Escherichia coli
Protocol: as §1, §2

gram-positive bacteria = test: MIC, summary statements for gram-positive bacteria; type: cell-based
Protocol: as §1, §2

P. aeruginosa = test: microbe, parasite or virus in culture; type: cell-based, Pseudomonas aeruginosa
Protocol: as §1, §2

gram-negative bacteria = test: MIC, summary statements for gram-negative bacteria; type: cell-based; details: gram-negative bacteria
Protocol: as §1, §2

B. subtilis = test: microbe, parasite or virus in culture; type: cell-based, Bacillus subtilis
Protocol: as §1, §2

A. baumannii [2] = test: MIC of antimicrobial peptide during combined treatment with antibiotic; type: cell-based, Acinetobacter baumannii
Protocol: (§3) Specifically, the strains described in [Table 2] were prepared and diluted with an MH medium such that the number of bacteria was 2×10^6 colony-forming units (CFUs) per 1 ml, 100 μl of the diluted strains was each aliquoted into a 96-well microtiter plate, and then 50 μl of a peptide solution diluted with the MH medium from the MIC value (solution diluted stepwise at 2: 1) was added to each well. Thereafter, the MIC value of each mixed solution was determined by diluting the antibiotic solution with the MH medium, adding 50 μl of the diluted solution to each well, and performing an experiment even under a reversed condition.

S. typhimurium = test: microbe, parasite or virus in culture; type: cell-based, Salmonella typhimurium
Protocol: as §1, §2

S. aureus = test: microbe, parasite or virus in culture; type: cell-based, Staphylococcus aureus
Protocol: as §1, §2

E. coli [3] = test: MIC of antibiotic during combined treatment with antimicrobial peptide; type: cell-based, Escherichia coli; details: E. coli and A. baumannii; antibiotic MIC with papiliocin
Protocol: Thereafter, the MIC value of each mixed solution was determined by diluting the antibiotic solution with the MH medium, adding 50 μl of the diluted solution to each well, and performing an experiment even under a reversed condition.

E. coli [4] = type: cell-based, Escherichia coli; details: for Peptide MIC during treatment with erythromycin / Peptide MIC during treatment with linezolid / Peptide MIC during treatment with vancomycin: E. coli
Protocol: as §3

E. coli [5] = test: microbe, parasite or virus in culture; type: cell-based, Escherichia coli
Protocol: as §1, §2

[6] = linezolid 32 μg/ml (Conc./MIC 1/8)
[7] = linezolid 64 μg/ml (Conc./MIC 1/4)
[8] = vancomycin 512 μg/ml (Conc./MIC 1/2)
[9] = vancomycin 1024 μg/ml (Conc./MIC 1)

CC[C@H](C)[C@H](NC(=O)CN)C(=O)NCC(=O)N[C@@H](C)C(=O)N[C@H](C(=O)N[C@@H](CC(C)C)C(=O)N[C@@H](CCCCN)C(=O)N[C@H](C(=O)N[C@@H](CC(C)C)C(=O)N[C@H](C(=O)N[C@H](C(=O)NCC(=O)N[C@@H](CC(C)C)C(=O)N1CCC[C@H]1C(=O)N[C@@H](C)C(=O)N[C@@H](CC(C)C)C(=O)N[C@H](C(=O)N[C@@H](CO)C(=O)N[C@@H](Cc1c[nH]c2ccccc12)C(=O)N[C@H](C(=O)N[C@@H](CCCCN)C(=O)N[C@@H](CCCNC(=N)N)C(=O)N[C@@H](CCCCN)C(=O)N[C@@H](CCCNC(=N)N)C(=O)N[C@@H](CCC(N)=O)C(=O)N[C@@H](CCC(N)=O)C(N)=O)[C@@H](C)CC)[C@@H](C)CC)[C@@H](C)O)[C@@H](C)O)C(C)C)C(C)C [Melittin, reference compound]
Minimal inhibitory concentration MIC (MDRPA 2002; MDRPA 2002, agent alone): 16 µg/mL (≈ 5.62 µM) | Minimal inhibitory concentration MIC (MDRPA 2003; MDRPA 2003, agent alone): 16 µg/mL (≈ 5.62 µM) | Minimal inhibitory concentration MIC (MRSA 3126; MRSA 3126, agent alone): 16 µg/mL (≈ 5.62 µM) | Minimal inhibitory concentration MIC (MRSA 3114; MRSA 3114, agent alone): 8 µg/mL (≈ 2.81 µM) | Minimal inhibitory concentration MIC (S. epidermidis; S. epidermidis, agent alone): 16 µg/mL (≈ 5.62 µM) | Minimal inhibitory concentration MIC (MDRAB 12035; MDRAB 12035, agent alone): 8 µg/mL (≈ 2.81 µM) | Minimal inhibitory concentration MIC (A. baumannii [1]; A. baumannii, agent alone): 8 µg/mL (≈ 2.81 µM) | Minimal inhibitory concentration MIC (MDRAB 12036; MDRAB 12036, agent alone): 16 µg/mL (≈ 5.62 µM) | Minimal inhibitory concentration MIC (MDRST 8009): 32 µg/mL (≈ 11.2 µM) | Minimal inhibitory concentration MIC (MDRST 8007): 32 µg/mL (≈ 11.2 µM) | Minimal inhibitory concentration MIC (MDREC 1238; MDREC 1238, agent alone): 32 µg/mL (≈ 11.2 µM) | Minimal inhibitory concentration MIC (MDREC 1229; MDREC 1229, agent alone): 16 µg/mL (≈ 5.62 µM)

CC[C@H](C)[C@H](NC(=O)CNC(=O)[C@H](CC(=O)O)NC(=O)[C@H](CCCNC(=N)N)NC(=O)[C@@H](NC(=O)[C@H](CC(N)=O)NC(=O)[C@H](CCCNC(=N)N)NC(=O)CNC(=O)[C@@H](NC(=O)[C@H](CCCCN)NC(=O)[C@H](CCC(=O)O)NC(=O)[C@@H](NC(=O)[C@H](CCCCN)NC(=O)[C@H](CCCCN)NC(=O)[C@H](Cc1ccccc1)NC(=O)[C@@H](NC(=O)[C@H](CCCCN)NC(=O)[C@H](Cc1c[nH]c2ccccc12)NC(=O)[C@@H](N)CCCNC(=N)N)[C@@H](C)CC)[C@@H](C)CC)C(C)C)C(C)C)C(=O)N[C@H](C(=O)N[C@@H](CCCCN)C(=O)N[C@@H](C)C(=O)NCC(=O)N1CCC[C@H]1C(=O)N[C@@H](C)C(=O)N[C@H](C(=O)N[C@@H](C)C(=O)N[C@H](C(=O)N[C@H](C(=O)NCC(=O)N[C@@H](CCC(N)=O)C(=O)N[C@@H](C)C(=O)N[C@@H](C)C(=O)N[C@H](C(=O)N[C@H](C(=O)N[C@H](C(=O)N[C@@H](CCCCN)C(N)=O)C(C)C)C(C)C)[C@@H](C)O)C(C)C)C(C)C)C(C)C)[C@@H](C)CC [Papiliocin, reference compound] (H-RWKIFKKIEKVGRNVRDGIIKAGPAVAVVGQAATVVK-NH2; N-terminus and C-terminus assumed)
Antibacterial activity (in words) (gram-positive bacteria): very low antibacterial activity | Minimal inhibitory concentration MIC (MDRPA 2002): 16 µg/mL (≈ 4 µM) | Minimal inhibitory concentration MIC (MDRPA 2003): 16 µg/mL (≈ 4 µM) | Minimal inhibitory concentration MIC (P. aeruginosa): 16 µg/mL (≈ 4 µM) | Antibacterial activity (in words) (gram-negative bacteria): very high antibacterial activity | Minimal inhibitory concentration MIC (MRSA 3126; 3126): >128 µg/mL | Minimal inhibitory concentration MIC (MRSA 3114; 3114): >128 µg/mL | Minimal inhibitory concentration MIC (B. subtilis): >128 µg/mL | Minimal inhibitory concentration MIC (S. epidermidis): >128 µg/mL | Minimal inhibitory concentration MIC (MDRAB 12035): 8 µg/mL (≈ 2 µM) | Minimal inhibitory concentration MIC (A. baumannii [1]): 8 µg/mL (≈ 2 µM) | Peptide MIC, peptide alone (A. baumannii [1]): 8 µg/mL | Peptide MIC during treatment with erythromycin (A. baumannii [2]; erythromycin 4 μg/ml (Conc./MIC 1/8)): 8 µg/mL | Peptide MIC during treatment with erythromycin (A. baumannii [2]; erythromycin 8 μg/ml (Conc./MIC 1/4)): 4 µg/mL | Peptide MIC during treatment with erythromycin (A. baumannii [2]; erythromycin 16 μg/ml (Conc./MIC 1/2)): 4 µg/mL | Peptide MIC during treatment with erythromycin (A. baumannii [2]; erythromycin 32 μg/ml (Conc./MIC 1)): 0 µg/mL | Peptide MIC during treatment with linezolid (A. baumannii [2]; [6]): 8 µg/mL | Peptide MIC during treatment with linezolid (A. baumannii [2]; [7]): 4 µg/mL | Peptide MIC during treatment with linezolid (A. baumannii [2]; linezolid […] (Conc./MIC 1)): 0 µg/mL | Peptide MIC during treatment with linezolid (A. baumannii [2]; linezolid […] (Conc./MIC 1/2)): 4 µg/mL | Peptide MIC during treatment with vancomycin (A. baumannii [2]; [8]): 2 µg/mL | Peptide MIC during treatment with vancomycin (A. baumannii [2]; [9]): 0 µg/mL | Peptide MIC during treatment with vancomycin (A. baumannii [2]; vancomycin […] (Conc./MIC 1/4)): 2 µg/mL | Peptide MIC during treatment with vancomycin (A. baumannii [2]; vancomycin […] (Conc./MIC 1/8)): 4 µg/mL | Minimal inhibitory concentration MIC (MDRAB 12036): 16 µg/mL (≈ 4 µM) | Minimal inhibitory concentration MIC (S. typhimurium): 16 µg/mL (≈ 4 µM) | Minimal inhibitory concentration MIC (MDREC 1238): 16 µg/mL (≈ 4 µM) | Minimal inhibitory concentration MIC (S. aureus): >128 µg/mL | Synergistic effect of combination with the antibiotics (in words) (E. coli [3]): does not have a great synergistic effect | Peptide MIC during treatment with erythromycin (E. coli [4]; erythromycin 16 μg/ml (Conc./MIC 1/8)): 4 µg/mL | Peptide MIC during treatment with erythromycin (E. coli [4]; erythromycin 32 μg/ml (Conc./MIC 1/4)): 4 µg/mL | Peptide MIC during treatment with erythromycin (E. coli [4]; erythromycin 64 μg/ml (Conc./MIC 1/2)): 4 µg/mL | Peptide MIC during treatment with erythromycin (E. coli [4]; erythromycin […] (Conc./MIC 1)): 0 µg/mL | Peptide MIC during treatment with linezolid (E. coli [4]; [6]): 8 µg/mL | Peptide MIC during treatment with linezolid (E. coli [4]; [7]): 4 µg/mL | Peptide MIC during treatment with linezolid (E. coli [4]; linezolid […] (Conc./MIC 1)): 0 µg/mL | Peptide MIC during treatment with linezolid (E. coli [4]; linezolid […] (Conc./MIC 1/2)): 4 µg/mL | Peptide MIC during treatment with vancomycin (E. coli [4]; [8]): 2 µg/mL | Peptide MIC during treatment with vancomycin (E. coli [4]; [9]): 0 µg/mL | Peptide MIC during treatment with vancomycin (E. coli [4]; vancomycin […] (Conc./MIC 1/4)): 2 µg/mL | Peptide MIC during treatment with vancomycin (E. coli [4]; vancomycin […] (Conc./MIC 1/8)): 4 µg/mL | Synergistic effect on peptide MIC when mixed with antibiotics (in words) (E. coli [4]; papiliocin as comparative control (Table 34)): does not have a synergistic effect | Peptide MIC, single treatment (E. coli [5]): 8 µg/mL | Minimal inhibitory concentration MIC (E. coli [5]; 16 h): 8 µg/mL (≈ 2 µM) | Minimal inhibitory concentration MIC (MDREC 1229): 8 µg/mL (≈ 2 µM)
